Test results as given in ChEMBL document CHEMBL5614396, “Structure-Activity Relationship Studies in Benzothiadiazoles as Novel Vaccine Adjuvants” (J Med Chem, 2024).
The source made the active and inactive calls. No cut-off for these calls is given here.

Key:
Mus musculus [1] = assay: Immunostimulatory activity in BALB/c mouse assessed as increase in serum CXCL-1 level at 200 nmol, im and measured after 2 to 6 hrs by ELISA; type: functional, organism-based; conditions: time 2-6 hrs
[2] = Cytotoxicity against Balb/c mouse BMDC assessed as cell viability at 10 uM incubated for 20 hrs by MTT assay (reference value: 100 +/-0.6%); type: toxicity, cell-based; conditions: BMDC (bone marrow-derived dendritic cells), read-out: Activity
[3] = Toxicity in ovalbumin-immunized BALB/c mouse assessed as weight loss at 200 nmol, im co-administered with ovalbumin on day 0 and day 21; type: organism-based; conditions: in vivo, 528 h, time 22 day
BMDC [4] = assay: Vaccine adjuvant activity in Balb/c mouse BMDC assessed as induction of Ca2+ influx at 10 uM by Fura-2/8-AM dye based fluorescence analysis (reference value: 0%); type: functional
THP-1 = assay: Vaccine adjuvant activity in human THP-1 cells expressing CD63-Turbo-luciferase and CD9-Emerald green fluorescent protein reporter assessed as extracellular vesicle release by measuring reporter activation at 10 uM incubated for 48 hrs by TurboLuc luciferase based chemiluminescence assay (reference value: 0%); type: functional
BMDC [5] = assay: Vaccine adjuvant activity in Balb/c mouse BMDC assessed as increase in IL-12 production at 10 uM incubated for 20 hrs by ELISA (reference value: 1.35 +/-0.1 ng/ml); type: functional
Mus musculus [6] = assay: Immunostimulatory activity in BALB/c mouse assessed as increase in serum CXCL-1 level at 200 nmol, im and measured after 24 hrs by ELISA; type: functional, organism-based
[7] = Toxicity in ovalbumin-immunized BALB/c mouse assessed as behavioural changes at 200 nmol, im co-administered with ovalbumin on day 0 and day 21; type: organism-based; conditions: in vivo, 528 h, time 22 day
Mus musculus [8] = assay: Vaccine adjuvant activity against ovalbumin-immunized BALB/c mouse assessed as increase in anti-OVA specific IgG titer in serum at 200 nmol, im co-administered with ovalbumin on day 0 and day 21 and measured on day 28 by ELISA; type: functional, organism-based; conditions: time 29.0 day
Mus musculus [9] = assay: Vaccine adjuvant activity against ovalbumin-immunized BALB/c mouse assessed as induction of antigen-specific Th2 immune responses by measuring increase in anti-OVA specific IgG1 titer in serum at 200 nmol, im co-administered with ovalbumin on day 0 and day 21 and measured on day 28 by ELISA; type: functional, organism-based; conditions: time 29.0 day
Mus musculus [10] = assay: Immunostimulatory activity in BALB/c mouse assessed as increase in serum CCL-2 level at 1 ug, im and measured after 24 hrs by multiplex Luminex beads assay; type: functional, organism-based; conditions: dose 1.0 µg
Mus musculus [11] = assay: Immunostimulatory activity in BALB/c mouse assessed as increase in serum IL-6 level at 1 ug, im and measured after 2 hrs by multiplex Luminex beads assay; type: functional, organism-based; conditions: dose 1.0 µg
Mus musculus [12] = assay: Immunostimulatory activity in BALB/c mouse assessed as increase in serum CCL-4 level at 1 ug, im and measured after 24 hrs by multiplex Luminex beads assay; type: functional, organism-based; conditions: dose 1.0 µg
Mus musculus [13] = assay: Immunostimulatory activity in BALB/c mouse assessed as increase in serum IL-6 level at 1 ug, im and measured after 24 hrs by multiplex Luminex beads assay; type: functional, organism-based; conditions: dose 1.0 µg
Mus musculus [14] = assay: Immunostimulatory activity in BALB/c mouse assessed as increase in serum CCL-2 level at 1 ug, im and measured after 2 hrs by multiplex Luminex beads assay; type: functional, organism-based; conditions: dose 1.0 µg
Mus musculus [15] = assay: Immunostimulatory activity in BALB/c mouse assessed as increase in serum CCL-4 level at 1 ug, im and measured after 2 hrs by multiplex Luminex beads assay; type: functional, organism-based; conditions: dose 1.0 µg
Mus musculus [16] = assay: Immunostimulatory activity in BALB/c mouse assessed as increase in serum CXCL-10 level at 1 ug, im and measured after 6 hrs by multiplex Luminex beads assay; type: functional, organism-based; conditions: dose 1.0 µg
Mus musculus [17] = assay: Immunostimulatory activity in BALB/c mouse assessed as increase in serum CXCL-1 level at 1 ug, im and measured after 2 hrs by ELISA; type: functional, organism-based; conditions: dose 1.0 µg
Mus musculus [18] = assay: Immunostimulatory activity in BALB/c mouse assessed as increase in serum CXCL-1 level at 1 ug, im and measured after 24 hrs by ELISA; type: functional, organism-based; conditions: dose 1.0 µg

Compound | viability at 20 h, 10 µM [2] [%] | Activity [3] | Activity (BMDC [4]) [%] | Activity (THP-1) [%] | Activity (BMDC [5]) [ng/mL] | Activity [7] | Activity (Mus musculus [8]) | other results
CCOC(=O)c1c(NS(=O)(=O)c2cccc3nsnc23)sc(C)c1C | 114 | Non-Toxic | 100 | 100 | 1.78 | Non-Toxic | Active | Activity (Mus musculus [1]): Active; Activity (Mus musculus [6]): inactive
CCOC(=O)c1c(NS(=O)(=O)c2cccc3nccnc23)sc(C)c1C | 181 | Non-Toxic | 122 | 113.3 | 4.12 | Non-Toxic | Active | Activity (Mus musculus [9]): Active
CCOC(=O)c1c(NS(=O)(=O)c2ccccc2)sc(C)c1C | 102 |  | -10.9 | 0.7 | 1.16 |  | inactive | 
CCOC(=O)c1c(NS(=O)(=O)c2cccc3nsnc23)sc(-c2ccccc2)c1C | 136 | Non-Toxic | 115.7 | 338.9 | 3.79 | Non-Toxic | Active | Activity (Mus musculus [1]): Active; Activity (Mus musculus [9]): Active; Activity (Mus musculus [6]): inactive
CCCCCCCCCCCCCC(=O)O[C@H](CCCCCCCCCCC)CC(=O)N[C@H]1[C@H](OC[C@H]2O[C@H](O)[C@H](NC(=O)C[C@H](O)CCCCCCCCCCC)[C@@H](OC(=O)C[C@H](O)CCCCCCCCCCC)[C@@H]2O)O[C@H](CO)[C@@H](OP(=O)(O)O)[C@@H]1OC(=O)C[C@@H](CCCCCCCCCCC)OC(=O)CCCCCCCCCCCCC |  |  |  |  |  |  |  | Activity (Mus musculus [10]): inactive; Activity (Mus musculus [11]): Active; Activity (Mus musculus [12]): inactive; Activity (Mus musculus [13]): inactive; Activity (Mus musculus [14]): Active; Activity (Mus musculus [15]): Active; Activity (Mus musculus [16]): Active; Activity (Mus musculus [17]): Active; Activity (Mus musculus [18]): inactive
CCOC(=O)c1c(NS(=O)(=O)c2cccc3n[se]nc23)sc(C)c1C | 109 | Non-Toxic | 147.5 | 210.4 | 3.11 | Non-Toxic | Active | Activity (Mus musculus [9]): Active
Cc1sc(NS(=O)(=O)c2cccc3nsnc23)c(C(=O)OC2CCCCC2)c1C | 102 | Non-Toxic | 177.8 | 213 | 3.08 | Non-Toxic | Active | Activity (Mus musculus [1]): Active; Activity (Mus musculus [9]): Active; Activity (Mus musculus [6]): inactive
Cc1sc(NS(=O)(=O)c2cccc3nsnc23)c(-c2nc(C#N)no2)c1C | 97.6 | Non-Toxic | -7 | 1.5 | 1.59 | Non-Toxic | inactive | 
CCOC(=O)c1c(NC(=O)c2cccc3nsnc23)sc(C)c1C | 59.1 |  | -5.4 | -0.4 | 1.37 |  |  | Activity (Mus musculus [1]): Active; Activity (Mus musculus [6]): inactive
CCOC(=O)c1c(C)cccc1NS(=O)(=O)c1cccc2nsnc12 | 88.8 |  | -14.2 | 1 | 1.14 |  |  | 
CCCCCCOC(=O)c1c(NS(=O)(=O)c2cccc3nsnc23)sc(C)c1C | 106 |  | 245 | 185.3 | 3.44 |  |  | 
COC(=O)c1c(NS(=O)(=O)c2cccc3nsnc23)sc(C)c1C | 114 |  | 83.6 | 30.1 | 1.75 |  |  | 
CCOC(=O)c1c(NS(=O)(=O)c2cccc3ccccc23)sc(C)c1C | 111 | Non-Toxic | -14.1 | 5.2 | 1.37 | Non-Toxic |  | 
CCOC(=O)c1c(NS(=O)(=O)c2ccc(Br)c3nsnc23)sc(C)c1C | 96.3 |  | 73.6 | 70.3 | 1.9 |  |  | 
CCOC(=O)c1c(NS(=O)(=O)c2cccc3nsnc23)sc(Br)c1C | 104 |  | 102.9 | 81.1 | 1.03 |  |  | 
CCOC(=O)c1c(NS(=O)(=O)c2cccc3nsnc23)sc2c1CCC2 | 127 |  | 121 | 94.9 | 1.85 |  |  | 
CCOC(=O)c1c(NS(=O)(=O)c2cccc3cccnc23)sc(C)c1C | 110 |  | 99.7 | 60.4 | 2 |  |  | 
CCOC(=O)c1c(NS(=O)(=O)c2cccc3ccncc23)sc(C)c1C | 87.5 |  | 4.1 | 3.6 | 1.12 |  |  | 
CCOC(=O)c1c(NS(=O)(=O)c2cccc3nsnc23)sc(-c2ccco2)c1C | 98.7 |  | 134.2 | 67.1 | 2.56 |  |  | 
CCOC(=O)c1c(NS(=O)(=O)c2cccc3c2NCCN3)sc(C)c1C | 89.3 |  | 2 | 2.7 | 1.06 |  |  | 
CCOC(=O)c1c(NS(=O)(=O)c2cccc3nonc23)sc(C)c1C | 105 |  | -12.5 | 4.7 | 1.47 |  |  | 
CCOC(=O)c1c(NS(=O)(=O)c2cccc3nsnc23)sc(C)c1CC | 100 |  | 117.6 | 112 | 2.27 |  |  | 
CCOC(=O)c1c(NS(=O)(=O)c2cccc3ncccc23)sc(C)c1C | 117 |  | -13.3 | 0 | 1.1 |  |  | 
